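Cultured in 96-well plates, cells were exposed to test compound for 48 hours across five concentrations. GI50 = concentration required for 50% inhibition of growth.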 The source made the active and inactive calls. Cut-off read from the data, not from the text of the source: active = GI50 up to about 1.1 µM and inactive = higher.

Test systems include 786-0; A498; HCT-116; HCT-15; HL-60; HOP-92; Malme-3M; OVCAR-3; OVCAR-4; OVCAR-5; SF-295; SK-MEL-28; SN12C; SNB-19; UACC-257; UACC-62; UO-31; SR.
Holding throughout (test): growth of human tumour cells (NCI), 48 h

As to `CC(C)(C)C1C=C(Sc2ccccc2)C(=O)O1` (stereo not drawn), the GI50 with 786-0 was 68.9 µM (inactive); with A498 it was 41.9 µM (inactive); in the assay with HCT-116 it was 40.1 µM (inactive); in the assay on HCT-15, 43.3 µM; in the assay with HL-60, 24.9 µM (inactive); in the assay on HOP-92 it was 29.2 µM (inactive). Besides, the GI50 in the assay with Malme-3M is 97.5 µM (inactive); in the assay with OVCAR-3 it was 42.8 µM (inactive); in the assay with OVCAR-4, 63.8 µM (inactive); in the assay with OVCAR-5 it was 34.2 µM (inactive); with SF-295, 35.2 µM (inactive); in the assay with SK-MEL-28 it was 83.6 µM (inactive). In addition, the GI50 in the assay with SN12C was 36.2 µM (inactive); with SNB-19, 57.9 µM (inactive); in the assay on UACC-257, 31.8 µM (inactive); with UACC-62 it was 36.7 µM (inactive); in the assay with UO-31 it was 33.7 µM (inactive).

On to `COc1ccc(N2C(=O)/C(=C(\C)c3cc4ccccc4oc3=O)N=C2c2cc([N+](=O)[O-])ccc2Cl)cc1`, for which the GI50 was 24 µM (inactive) with A498; 29.9 µM (inactive) with HCT-116; 22.9 µM (inactive) with HL-60; 45.2 µM (inactive) with Malme-3M; 73.8 µM (inactive) in the assay with OVCAR-3; 38.4 µM (inactive) in the assay on OVCAR-4. Further, the GI50 was > 100 µM (inactive) in the assay on OVCAR-5; 17.1 µM (inactive) with SF-295; 66.4 µM (inactive) with SK-MEL-28; 35 µM (inactive) in the assay with SN12C; 32.7 µM (inactive) with SNB-19; 34.4 µM (inactive) in the assay on SR. Besides, the GI50 was 44 µM (inactive) in the assay with UACC-257, 26.6 µM (inactive) with UACC-62 and 46.9 µM (inactive) in the assay with UO-31.

For `Cc1c(C)c2ccc(OC(C)C(=O)O)cc2oc1=O` (stereo not drawn), the GI50 in the assay on 786-0, in the assay on A498, with HCT-116, in the assay on HL-60, in the assay on HOP-92 and with Malme-3M was > 100 µM (inactive) each time. Also, the GI50 in the assay with OVCAR-3, in the assay with OVCAR-4, in the assay on SF-295, in the assay with SK-MEL-28, with SN12C and in the assay with SNB-19 was > 100 µM (inactive) each time. Moreover, the GI50 in the assay on SR, with UACC-257, in the assay on UACC-62 and in the assay with UO-31 was > 100 µM (inactive) throughout.

As to `O=C1C(c2ccccc2)=C(c2ccccc2)C(c2ccccc2)/C1=C1\C(=O)C(c2ccccc2)=C(c2ccccc2)C1c1ccccc1` (stereo not drawn), the GI50 in the assay on 786-0 was > 100 µM (inactive); with A498 it was > 100 µM (inactive); in the assay on HCT-116, > 100 µM (inactive); with HCT-15, over 100 µM; in the assay with HL-60, > 100 µM (inactive); with HOP-92, > 100 µM (inactive). Moreover, the GI50 in the assay with Malme-3M, in the assay with OVCAR-3, with OVCAR-4, with OVCAR-5, in the assay on SF-295 and in the assay with SK-MEL-28 was > 100 µM (inactive) throughout. The GI50 in the assay with SN12C, in the assay on SR, in the assay on UACC-257, with UACC-62 and in the assay on UO-31 was > 100 µM (inactive) each time.

As to `COc1ccc(/N=N/C(C(=O)c2ccccc2)C(=O)c2ccccc2)cc1`, the GI50 is 19.9 µM (inactive) in the assay with 786-0; 35.7 µM (inactive) with A498; 13.6 µM (inactive) in the assay on HCT-116; 15.1 µM in the assay with HCT-15; 10.4 µM (inactive) in the assay on HL-60; 24.9 µM (inactive) with Malme-3M. The GI50 in the assay with OVCAR-3 was 17.2 µM (inactive); in the assay on OVCAR-4, 30.8 µM (inactive); with OVCAR-5, 33.8 µM (inactive); in the assay with SF-295 it was 21.3 µM (inactive); in the assay with SK-MEL-28, 26.4 µM (inactive); with SN12C it was 21 µM (inactive). Moreover, the GI50 was 17.7 µM (inactive) with SNB-19, 24.5 µM (inactive) in the assay on UACC-257, 16 µM (inactive) in the assay with UACC-62 and 16.9 µM (inactive) in the assay with UO-31.

As to `C/C=C/C(=O)[C@@H](O)C(C)C`, the GI50 is > 100 µM (inactive) in the assay with 786-0; > 100 µM (inactive) in the assay with HCT-116; over 100 µM with HCT-15; > 100 µM (inactive) in the assay on HOP-92; > 100 µM (inactive) in the assay with Malme-3M; > 100 µM (inactive) in the assay on OVCAR-3. The GI50 in the assay with OVCAR-4, with OVCAR-5, in the assay with SF-295, in the assay with SK-MEL-28, in the assay with SN12C and with SNB-19 was > 100 µM (inactive) in each case. In addition, the GI50 in the assay with SR, with UACC-257, in the assay on UACC-62 and in the assay on UO-31 was > 100 µM (inactive) in each case.

For the compound `O=C1C=CC(=O)C12CCc1ccccc12`, the GI50 was > 100 µM (inactive) with 786-0; > 100 µM (inactive) in the assay with A498; > 100 µM (inactive) with HCT-116; over 72.8 µM with HCT-15; 24.2 µM (inactive) in the assay on HL-60; > 100 µM (inactive) with HOP-92. In addition, the GI50 is > 100 µM (inactive) in the assay on Malme-3M; > 100 µM (inactive) in the assay with OVCAR-3; > 100 µM (inactive) with OVCAR-4; > 100 µM (inactive) with OVCAR-5; > 31.6 µM (inactive) in the assay with SF-295; > 100 µM (inactive) in the assay with SK-MEL-28. In addition, the GI50 in the assay with SN12C, in the assay on SNB-19, in the assay on UACC-257, in the assay on UACC-62 and with UO-31 was > 100 µM (inactive) throughout.

Regarding `Clc1ccc(-c2c(C3=NCCCN3)nnn2-c2ccccc2)cc1`, the GI50 with 786-0 was > 100 µM (inactive); with A498 it was > 100 µM (inactive); with HCT-116 it was 43.1 µM (inactive); with HCT-15 it was 43.6 µM; with HL-60, 17.6 µM (inactive); with HOP-92 it was 34.9 µM (inactive). Besides, the GI50 was > 100 µM (inactive) with Malme-3M; > 100 µM (inactive) with OVCAR-3; > 100 µM (inactive) in the assay on OVCAR-4; 67 µM (inactive) with OVCAR-5; > 100 µM (inactive) in the assay on SF-295; > 100 µM (inactive) in the assay on SK-MEL-28. The GI50 with SN12C was > 100 µM (inactive); in the assay with SNB-19 it was > 100 µM (inactive); in the assay on SR, 56.1 µM (inactive); with UACC-257, > 100 µM (inactive); in the assay on UACC-62 it was > 100 µM (inactive); in the assay on UO-31, 71.9 µM (inactive).

As for `CC(=O)OCCOCNC(=S)N/N=C/c1ccc([N+](=O)[O-])s1`, the GI50 was > 100 µM (inactive) with 786-0; 86.7 µM (inactive) in the assay with A498; 20.1 µM (inactive) in the assay on HCT-116; 30.4 µM in the assay on HCT-15; 3.81 µM (inactive) in the assay on HL-60; > 100 µM (inactive) with HOP-92. Moreover, the GI50 in the assay with Malme-3M was 48.4 µM (inactive); in the assay with OVCAR-3, 29.3 µM (inactive); in the assay with OVCAR-4 it was 64.1 µM (inactive); with OVCAR-5, 37.3 µM (inactive); in the assay on SF-295, 40.4 µM (inactive); in the assay with SK-MEL-28, > 100 µM (inactive). Moreover, the GI50 with SN12C is 36.4 µM (inactive); with SNB-19, > 100 µM (inactive); in the assay with SR it was 9.68 µM (inactive); in the assay on UACC-257 it was 23.8 µM (inactive); with UACC-62, 24.3 µM (inactive); in the assay on UO-31, > 100 µM (inactive).

On to `O=C(O)C12CC3CC(CC(F)(C3)C1)C2`, for which the GI50 in the assay with 786-0, in the assay with A498, in the assay with HCT-116, in the assay with HL-60, in the assay on HOP-92 and with Malme-3M was > 100 µM (inactive) in each case. For the same compound, the GI50 in the assay with OVCAR-3, in the assay with OVCAR-5, in the assay on SK-MEL-28, in the assay with UACC-257, in the assay with UACC-62 and with UO-31 was > 100 µM (inactive) in each case.

`CCOC(=N)CC(=O)Nc1cccc(C)c1C`: the GI50 in the assay with 786-0, in the assay with A498, in the assay with HCT-116, in the assay on HL-60, in the assay with Malme-3M and with OVCAR-3 was > 100 µM (inactive) throughout. In addition, the GI50 in the assay on OVCAR-4, in the assay with OVCAR-5, with SF-295, in the assay on SK-MEL-28, in the assay with SN12C and in the assay on SNB-19 was > 100 µM (inactive) throughout. In addition, the GI50 in the assay on SR, in the assay with UACC-257, in the assay on UACC-62 and in the assay on UO-31 was > 100 µM (inactive) each time.

In the case of `CC1CCCC2(O1)OC1CC(=O)OC1C1=C2C(=O)c2ccccc2C1=O` (stereo not drawn), the GI50 in the assay with 786-0 is 2.14 µM (inactive); with A498, 17.7 µM (inactive); in the assay on HCT-15, 2.8 µM; in the assay with HL-60 it was 1.39 µM (inactive); in the assay on Malme-3M it was 2.45 µM (inactive); in the assay on OVCAR-3, 2.72 µM (inactive). For the same compound, the GI50 with OVCAR-4 was 1.86 µM (inactive); in the assay with OVCAR-5, 19.9 µM (inactive); in the assay on SF-295, 17.6 µM (inactive); with SK-MEL-28 it was 2.14 µM (inactive); in the assay on SN12C, 2.18 µM (inactive); with SNB-19, 15.6 µM (inactive). Besides, the GI50 is 1.81 µM (inactive) with UACC-257, 2.25 µM (inactive) in the assay on UACC-62 and 2.13 µM (inactive) with UO-31.

The values above are taken from ChEMBL document CHEMBL1201862, “PubChem BioAssay data set” (2004).
